# Source: US20260263429A1, “INHIBITORS OF CA 2+/CALMODULIN-DEPENDENT PROTEIN KINASE II (CAMKII) THAT DO NOT INHIBIT LONG-TERM POTENTIATION (LTP) INDUCTION AND THERAPEUTIC USES THEREOF” (The Regents of the University of Colorado, A Body Corporate, priority 2023, published 2026)
# Like-named read-outs stand apart in the source and are kept apart here.
# Experiments:
# purified CaMKIIα = purified CaMKIIα (Homo sapiens, UniProt Q9UQM7); experiment: In vitro kinase reactions with purified CaMKIIα (GluA1 S831, T286, GluN2B S1303 phosphorylation); assay type: biochemical; design: made in house; host or cells: baculovirus/Sf9 (CaMKIIα); BL21 bacteria (CaM); details: for Ki: 1 mM ATP, 30° C., AS283 0.41-10 μM, Cheng-Prusoff with Km ATP 33.3 μM
# Experimental: In a series of exemplary methods, an in vitro kinase assay was used where purified CaMKIIα is incubated at 30° C. with GST-GluA1 alongside ATP. CaMKIIα normally phosphorylates S831 on the GluA1 subunit and this phosphorylation can be measured as a readout of CaMKIIα enzymatic activity (see e.g., FIG. 8B). […] In another exemplary method, binding of purified CaMKIIα to immobilized GST-GluN2B-c was induced by Ca^2+/CaM in the presence of a vehicle (none), 4 mM ADP or with […] AS105. […] At the same time, two exemplary methods were performed to observe ionomycin or chemical LTP (cLTP) induced co-localization of CaMKII and GluN2B either in HEK293 cells co-expressing GFP-CaMKII and mCherry-2BC or dissociated rat hippocampal cultures expressing GFP-CaMKII and mCh-PSD95 intrabody. HEK293 cells, incubating with vehicle or 10 μM AS105, were subjected to ionomycin. Hippocampal cultures, also incubating with either vehicle or 10 μM AS105, were treated with a chemical LTP (cLTP) stimulus (e.g., 100 μM glutamate, 10 μM glycine for 45 seconds). Confocal microscopy images were taken before and after each stimulus.
# Therefore, in another exemplary method, the ability of AS283 to selective inhibit CAMKII enzymatic activity without interfering with its binding to GluN2B was tested. In a first method, in vitro kinase reactions were performed at 30° C. in 1 mM ATP measuring purified CaMKIIα phosphorylation of GST-GluA1 S831 with varying concentrations of AS283 (0.41-10 μM).
# One possible mechanism by which AS283 could enhance GluN2B binding more than ATP is by suppressing CaMKII-mediated phosphorylation of GluN2B at S1303, as this phosphorylation within the CaMKII binding site on GluN2B reduces CaMKII binding.
# In vitro phosphorylation assays. CaMKII-mediated phosphorylation of GluA1 S831 was measured by in vitro kinase reaction with purified GST-GluA1 c-terminal tail. Reactions contained 40 nM CaMKII (or water for negative controls), 1 μM GST-GluA1, 50 mM PIPES pH 7.1, 2 mM CaCl2), 10 mM MgCl2, 1 μM calmodulin, 1-4 mM ATP, and 1 PM of okadaic acid. Reactions were done at 30° C. for 20 s; reactions were stopped by adding SDS-loading buffer and incubation in a boiling water bath for 5 min. GST, phospho-S831, CaMKII, phospho-T286, or phospho-S1303 were detected in the samples by immunoblot analysis.
# Km and Ki determination. The inhibition constant Ki was calculated using the Cheng-Prusoff equation for competitive inhibition: Ki=IC50/(1+[ATP]/Km).
# [1] = system: CaMKII movement to excitatory synapses; experiment: cLTP-induced CaMKII movement to excitatory synapses in the presence of soluble oligomeric Aβ; assay type: cell-based; details: 0.5 μM Aβ, inhibitor 10 μM, 45 minutes prior to cLTP
# pT286 CaMKII = experiment: CaMKII T286 phosphorylation in hippocampal cultures after chemical LTP stimulation; assay type: cell-based
# Experimental: In this Example, other possibilities of AS283 action were tested. If AS283 blocks pT286 but not LTP because it also circumvents the need of pT286 for LTP, then AS283 should not only fail to block LTP in WT mice (as illustrated in FIGS. 3A-3B) but should also restore the capacity for LTP induction in T286A mutant mice. […] Specifically, in an exemplary method, the addition of AS283 (10 μM) enabled LTP in slices from the T286A mutant mice (FIGS. 3C-3D).
# Immunoblot analysis. Protein concentration was determined using the Pierce BCA protein assay (Thermo-Fisher). Before undergoing SDS-PAGE, samples were boiled in Laemmli sample buffer for 5 min at 95° C. Proteins were separated in a resolving phase polymerized from 10% acrylamide, then transferred to a polyvinylidene difluoride membrane at 24 V for 1-2 h at 4° C. […] Blots were developed using chemiluminescence (Super Signal West Femto, Thermo-Fisher) imaged using the Chemi-Imager 4400 system (Alpha-Innotech), or imaged directly by fluorescence (Cytiva CyDye 700 goat anti-mouse and CyDye 800 goat anti-rabbit secondary antibodies.) using an OdysseyFc imaging instrument. All immunoblots were analyzed by densitometry (ImageJ). […]
# IGF-1R(h) = IGF-1R(h) (Homo sapiens, UniProt P08069); experiment: Kinase panel, residual kinase activity at 1 μM inhibitor; assay type: biochemical
# Sequence of IGF-1R(h) (P08069 31-1367): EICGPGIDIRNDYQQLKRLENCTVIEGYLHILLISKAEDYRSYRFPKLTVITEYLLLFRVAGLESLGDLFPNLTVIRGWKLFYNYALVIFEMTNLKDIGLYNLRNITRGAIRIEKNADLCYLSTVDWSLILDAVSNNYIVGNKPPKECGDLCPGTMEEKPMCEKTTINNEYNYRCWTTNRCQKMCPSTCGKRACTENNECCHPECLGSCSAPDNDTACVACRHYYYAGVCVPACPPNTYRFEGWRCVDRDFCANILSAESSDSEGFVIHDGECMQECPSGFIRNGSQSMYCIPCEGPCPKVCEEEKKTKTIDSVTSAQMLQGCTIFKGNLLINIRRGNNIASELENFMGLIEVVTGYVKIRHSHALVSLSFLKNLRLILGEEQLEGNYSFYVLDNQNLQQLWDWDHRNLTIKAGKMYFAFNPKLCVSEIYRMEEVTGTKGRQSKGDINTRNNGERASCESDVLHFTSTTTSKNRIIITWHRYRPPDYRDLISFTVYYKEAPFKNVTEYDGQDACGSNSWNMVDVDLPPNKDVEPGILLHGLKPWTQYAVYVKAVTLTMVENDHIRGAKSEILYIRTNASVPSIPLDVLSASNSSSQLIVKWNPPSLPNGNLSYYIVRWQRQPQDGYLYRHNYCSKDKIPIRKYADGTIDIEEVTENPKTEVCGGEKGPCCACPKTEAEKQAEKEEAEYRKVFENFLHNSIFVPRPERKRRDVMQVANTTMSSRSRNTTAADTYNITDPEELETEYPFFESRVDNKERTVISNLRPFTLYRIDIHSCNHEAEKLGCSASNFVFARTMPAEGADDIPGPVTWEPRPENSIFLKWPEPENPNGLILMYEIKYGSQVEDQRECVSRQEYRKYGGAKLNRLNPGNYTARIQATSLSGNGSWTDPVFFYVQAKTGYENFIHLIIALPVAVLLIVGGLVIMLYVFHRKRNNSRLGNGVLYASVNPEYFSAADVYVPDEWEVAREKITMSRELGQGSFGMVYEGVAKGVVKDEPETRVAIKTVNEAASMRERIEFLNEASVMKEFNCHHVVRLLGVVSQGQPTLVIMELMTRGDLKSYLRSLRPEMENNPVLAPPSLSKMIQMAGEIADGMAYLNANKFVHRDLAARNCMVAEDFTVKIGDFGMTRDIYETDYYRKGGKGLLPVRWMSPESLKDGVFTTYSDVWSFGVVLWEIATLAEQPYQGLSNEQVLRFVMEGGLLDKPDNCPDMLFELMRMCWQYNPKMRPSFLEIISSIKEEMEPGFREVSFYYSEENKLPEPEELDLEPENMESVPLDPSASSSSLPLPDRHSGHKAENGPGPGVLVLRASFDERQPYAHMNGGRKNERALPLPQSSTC
# Experimental: (§1) In this table, residual kinase activity in the presence of 1 μM of each inhibitor is illustrated as a percentage of maximal activity.
# MEK1(h) = MEK1(h) (Homo sapiens, UniProt Q02750); experiment: as above; assay type: biochemical
# Sequence of MEK1(h) (Q02750 whole entry): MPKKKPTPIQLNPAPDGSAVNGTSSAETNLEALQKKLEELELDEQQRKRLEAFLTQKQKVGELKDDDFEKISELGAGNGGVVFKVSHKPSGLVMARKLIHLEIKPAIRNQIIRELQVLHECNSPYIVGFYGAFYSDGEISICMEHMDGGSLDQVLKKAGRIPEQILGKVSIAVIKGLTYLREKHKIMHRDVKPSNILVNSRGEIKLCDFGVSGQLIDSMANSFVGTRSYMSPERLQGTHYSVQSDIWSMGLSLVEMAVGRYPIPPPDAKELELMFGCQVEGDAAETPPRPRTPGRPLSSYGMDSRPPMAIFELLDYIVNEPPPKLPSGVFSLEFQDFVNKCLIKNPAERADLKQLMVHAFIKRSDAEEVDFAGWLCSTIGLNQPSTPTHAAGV
# Experimental: as §1
# p70S6K(h) = p70S6K(h) (Homo sapiens, UniProt P23443); experiment: as above; assay type: biochemical
# Sequence of p70S6K(h) (P23443 whole entry): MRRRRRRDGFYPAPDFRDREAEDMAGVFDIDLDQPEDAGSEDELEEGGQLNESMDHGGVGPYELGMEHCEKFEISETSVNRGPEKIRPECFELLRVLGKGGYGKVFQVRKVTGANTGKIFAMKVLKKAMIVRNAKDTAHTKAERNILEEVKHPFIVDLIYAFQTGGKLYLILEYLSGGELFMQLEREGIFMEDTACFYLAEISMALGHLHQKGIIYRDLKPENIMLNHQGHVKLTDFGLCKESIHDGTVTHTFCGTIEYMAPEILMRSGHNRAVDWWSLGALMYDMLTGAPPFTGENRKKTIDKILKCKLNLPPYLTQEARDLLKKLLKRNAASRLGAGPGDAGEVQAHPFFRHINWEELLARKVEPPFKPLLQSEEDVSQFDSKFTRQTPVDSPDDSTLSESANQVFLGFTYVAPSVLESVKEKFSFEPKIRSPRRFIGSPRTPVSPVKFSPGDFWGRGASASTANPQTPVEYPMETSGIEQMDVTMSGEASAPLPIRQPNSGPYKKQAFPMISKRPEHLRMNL
# Experimental: as §1
# MAPK2(h) = MAPK2(h) (Homo sapiens, UniProt P28482); experiment: as above; assay type: biochemical
# Experimental: as §1
# KDR(h) = KDR(h) (Homo sapiens, UniProt P35968); experiment: as above; assay type: biochemical
# Sequence of KDR(h) (P35968 20-1356): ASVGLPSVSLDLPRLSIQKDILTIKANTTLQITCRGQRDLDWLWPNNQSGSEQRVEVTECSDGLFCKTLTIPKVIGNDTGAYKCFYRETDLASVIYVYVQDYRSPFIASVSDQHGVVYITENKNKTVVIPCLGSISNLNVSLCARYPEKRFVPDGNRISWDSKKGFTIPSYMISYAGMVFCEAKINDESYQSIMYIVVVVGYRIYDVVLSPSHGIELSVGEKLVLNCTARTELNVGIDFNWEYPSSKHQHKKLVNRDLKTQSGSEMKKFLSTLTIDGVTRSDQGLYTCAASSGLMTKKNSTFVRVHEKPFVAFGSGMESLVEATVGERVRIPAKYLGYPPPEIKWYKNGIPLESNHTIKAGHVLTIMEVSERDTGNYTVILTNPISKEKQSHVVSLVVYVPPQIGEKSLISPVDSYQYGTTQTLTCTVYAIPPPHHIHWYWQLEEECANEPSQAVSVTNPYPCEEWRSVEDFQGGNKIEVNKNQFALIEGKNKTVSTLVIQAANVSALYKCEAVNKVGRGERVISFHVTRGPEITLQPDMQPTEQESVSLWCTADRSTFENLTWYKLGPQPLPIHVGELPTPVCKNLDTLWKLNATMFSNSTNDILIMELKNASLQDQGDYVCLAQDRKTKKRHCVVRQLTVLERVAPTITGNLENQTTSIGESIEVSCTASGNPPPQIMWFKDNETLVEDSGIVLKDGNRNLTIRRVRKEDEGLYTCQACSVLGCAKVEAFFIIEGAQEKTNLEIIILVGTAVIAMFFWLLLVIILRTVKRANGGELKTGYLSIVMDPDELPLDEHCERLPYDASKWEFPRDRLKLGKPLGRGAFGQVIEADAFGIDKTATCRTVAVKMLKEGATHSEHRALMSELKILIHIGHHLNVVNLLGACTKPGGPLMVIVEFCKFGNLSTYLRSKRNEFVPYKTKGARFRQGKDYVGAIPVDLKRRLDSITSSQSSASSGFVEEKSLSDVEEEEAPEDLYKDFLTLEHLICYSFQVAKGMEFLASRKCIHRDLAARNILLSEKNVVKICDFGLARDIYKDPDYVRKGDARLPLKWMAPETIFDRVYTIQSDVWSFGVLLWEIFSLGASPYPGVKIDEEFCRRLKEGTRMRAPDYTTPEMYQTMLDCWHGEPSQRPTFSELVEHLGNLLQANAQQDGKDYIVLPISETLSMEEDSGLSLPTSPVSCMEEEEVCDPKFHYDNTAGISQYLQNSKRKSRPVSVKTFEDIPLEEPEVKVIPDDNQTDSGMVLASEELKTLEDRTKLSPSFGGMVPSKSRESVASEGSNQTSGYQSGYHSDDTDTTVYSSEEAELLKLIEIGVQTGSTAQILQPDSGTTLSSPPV
# Experimental: as §1
# ROCK-II(h) = ROCK-II(h) (Homo sapiens, UniProt O75116); experiment: as above; assay type: biochemical
# Sequence of ROCK-II(h) (O75116 whole entry): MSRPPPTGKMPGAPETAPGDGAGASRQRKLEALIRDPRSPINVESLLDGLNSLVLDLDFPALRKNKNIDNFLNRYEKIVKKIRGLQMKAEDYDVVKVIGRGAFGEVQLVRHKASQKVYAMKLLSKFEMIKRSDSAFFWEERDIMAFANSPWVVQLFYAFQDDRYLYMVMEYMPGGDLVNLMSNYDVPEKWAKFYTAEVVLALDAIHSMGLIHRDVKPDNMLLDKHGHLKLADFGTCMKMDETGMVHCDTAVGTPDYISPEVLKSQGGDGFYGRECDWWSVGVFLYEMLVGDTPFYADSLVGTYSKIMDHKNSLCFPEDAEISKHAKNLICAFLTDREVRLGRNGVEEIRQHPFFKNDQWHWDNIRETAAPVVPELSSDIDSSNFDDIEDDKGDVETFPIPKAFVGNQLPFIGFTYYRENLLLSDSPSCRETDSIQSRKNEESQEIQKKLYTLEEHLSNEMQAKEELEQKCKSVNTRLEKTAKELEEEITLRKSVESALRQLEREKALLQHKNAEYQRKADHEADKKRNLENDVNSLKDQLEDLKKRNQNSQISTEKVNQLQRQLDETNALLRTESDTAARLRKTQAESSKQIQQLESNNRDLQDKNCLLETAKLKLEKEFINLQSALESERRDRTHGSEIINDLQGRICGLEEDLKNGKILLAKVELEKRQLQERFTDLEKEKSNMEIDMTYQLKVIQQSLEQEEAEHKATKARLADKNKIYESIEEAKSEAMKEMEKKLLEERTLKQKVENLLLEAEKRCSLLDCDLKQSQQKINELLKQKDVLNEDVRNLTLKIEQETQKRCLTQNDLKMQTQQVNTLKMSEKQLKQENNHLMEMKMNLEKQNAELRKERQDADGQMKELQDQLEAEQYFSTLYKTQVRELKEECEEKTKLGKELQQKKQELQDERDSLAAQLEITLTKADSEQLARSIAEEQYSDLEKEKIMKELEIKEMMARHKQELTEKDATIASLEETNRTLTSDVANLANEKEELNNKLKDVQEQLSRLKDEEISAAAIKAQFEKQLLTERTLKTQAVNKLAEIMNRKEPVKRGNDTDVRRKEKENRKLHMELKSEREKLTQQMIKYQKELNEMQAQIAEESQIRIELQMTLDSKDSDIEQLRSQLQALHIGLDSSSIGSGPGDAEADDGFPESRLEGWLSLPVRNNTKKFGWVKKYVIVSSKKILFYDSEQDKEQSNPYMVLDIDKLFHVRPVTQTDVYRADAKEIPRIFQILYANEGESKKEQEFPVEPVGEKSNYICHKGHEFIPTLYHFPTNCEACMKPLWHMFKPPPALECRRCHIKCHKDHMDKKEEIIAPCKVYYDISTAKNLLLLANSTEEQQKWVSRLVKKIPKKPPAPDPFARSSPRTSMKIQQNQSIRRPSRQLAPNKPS
# Experimental: as §1
# SGK(h) = SGK(h) (Homo sapiens, UniProt O00141); experiment: as above; assay type: biochemical
# Experimental: as §1
compound,measurement,setting,value
CC(C)(C)n1nc(Cc2cccc3ccccc23)c2c(N)ncnc21 [NM-PP1],effect on pT286 of CaMKII wildtype,purified CaMKIIα; in vitro kinase reaction in ATP,did not affect pT286
NCCNc1cccc(-c2ccnc3[nH]c4ccccc4c23)c1 [AS283],rescue of Aβ-blocked cLTP-induced movement of CaMKII to the synapses,[1],rescued
same,increase in pT286 levels after chemical LTP stimulation,pT286 CaMKII,specifically blocked increase in pT286 levels
same,Ki,"purified CaMKIIα; read-out: apparent Ki, autophosphorylation of T286 (pT286)",71 nM
same,Ki,"purified CaMKIIα; read-out: apparent Ki, phosphorylation of GluA1 S831 (pS831)",17 nM
same,CaMKII-mediated S1303 phosphorylation of wild type GluN2B C-terminus,purified CaMKIIα; purified CaMKII and GST-2BC,inhibited the CaMKII-mediated S1303 phosphorylation
same,"residual kinase activity, IGF-1R(h)",IGF-1R(h),110 percentage of maximal activity
same,"residual kinase activity, MEK1(h)",MEK1(h),85 percentage of maximal activity
same,"residual kinase activity, p70S6K(h)",p70S6K(h),18 percentage of maximal activity
same,"residual kinase activity, MAPK2(h)",MAPK2(h),97 percentage of maximal activity
same,"residual kinase activity, KDR(h)",KDR(h),15 percentage of maximal activity
same,"residual kinase activity, ROCK-II(h)",ROCK-II(h),77 percentage of maximal activity
same,"residual kinase activity, SGK(h)",SGK(h),86 percentage of maximal activity
